Earlier results, collected in patent US11234954B2, “Low-dose doxepin for treatment of sleep disorders in elderly patients” (Pernix Sleep, Inc., priority 2006, dated 2022).

Conditions: major active metabolite of doxepin; cited from earlier work

In the case of CNCC/C=C1\c2ccccc2COc2ccccc21 [desmethyldoxepin, Desmethyldoxepin], the half-life is listed as 51 h.
